In patent publication US20100041089A1, “IMPROVED METHOD FOR DETECTING CHEMICAL […]” (priority 2006, published 2010):

Test system: yeast genes (expressed mRNA)
Test: DNA chip measurement of expressed mRNA of yeast genes after culture with a toxic chemical substance
Format: cell-based, Saccharomyces cerevisiae S288C
Settings: for level of expressed mRNA in the presence of chemical substance / level in the absence of chemical substance: cultured two hours with the chemical substance; for The level of expressed mRNA in the presence of chemical substance/The level of expressed mRNA in the absence of chemical substance: cultured two hours with substance
Summary of the method: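 Two-hour exposure of growing S. cerevisiae S288C (YPD, 25° C) to a sublethal toxicant preceded RNA isolation. Fluorescent cDNA was hybridized to a whole-genome array; a treated-to-untreated signal ratio of two or more was taken as significant.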

SMILES: [Cl][Cd][Cl] [(2), CdCl2]
- level of expressed mRNA in the presence of chemical substance / level in the absence of chemical substance (yeast gene YJL097W): 1.1
- The level of expressed mRNA in the presence of chemical substance/The level of expressed mRNA in the absence of chemical substance (yeast gene YJL151C): 2.4
- The level of expressed mRNA in the presence of chemical substance/The level of expressed mRNA in the absence of chemical substance (yeast gene YJL152W): 1.5
- The level of expressed mRNA in the presence of chemical substance/The level of expressed mRNA in the absence of chemical substance (yeast gene YJL161W): 2.2
- The level of expressed mRNA in the presence of chemical substance/The level of expressed mRNA in the absence of chemical substance (yeast gene YJL171C): 0.7
- The level of expressed mRNA in the presence of chemical substance/The level of expressed mRNA in the absence of chemical substance (yeast gene YJR008W): 1.5
- level of expressed mRNA in the presence of chemical substance / level in the absence of chemical substance (yeast gene YJR030C): 4.4
- The level of expressed mRNA in the presence of chemical substance/The level of expressed mRNA in the absence of chemical substance (yeast gene YJR054W): 0.9
- level of expressed mRNA in the presence of chemical substance / level in the absence of chemical substance (yeast gene YKL051W): 1.1
- The level of expressed mRNA in the presence of chemical substance/The level of expressed mRNA in the absence of chemical substance (yeast gene YKL071W): 3.8
- The level of expressed mRNA in the presence of chemical substance/The level of expressed mRNA in the absence of chemical substance (yeast gene YKL086W): 1.1
- level of expressed mRNA in the presence of chemical substance / level in the absence of chemical substance (yeast gene YKL097C): 1.6
- level of expressed mRNA in the presence of chemical substance / level in the absence of chemical substance (yeast gene YKL100C): 1.1
- The level of expressed mRNA in the presence of chemical substance/The level of expressed mRNA in the absence of chemical substance (yeast gene YKL151C): 3.1
- The level of expressed mRNA in the presence of chemical substance/The level of expressed mRNA in the absence of chemical substance (yeast gene YKL153W): 1.4
- The level of expressed mRNA in the presence of chemical substance/The level of expressed mRNA in the absence of chemical substance (yeast gene YKL195W): 0.5
- level of expressed mRNA in the presence of chemical substance / level in the absence of chemical substance (yeast gene YKR040C): 3.7
- The level of expressed mRNA in the presence of chemical substance/The level of expressed mRNA in the absence of chemical substance (yeast gene YKR091W): 2.3
- The level of expressed mRNA in the presence of chemical substance/The level of expressed mRNA in the absence of chemical substance (yeast gene YLR054C): 1.5
- The level of expressed mRNA in the presence of chemical substance/The level of expressed mRNA in the absence of chemical substance (yeast gene YLR149C): 1.9
- The level of expressed mRNA in the presence of chemical substance/The level of expressed mRNA in the absence of chemical substance (yeast gene YLR152C): 1.3
- The level of expressed mRNA in the presence of chemical substance/The level of expressed mRNA in the absence of chemical substance (yeast gene YLR194C): 2.2
- level of expressed mRNA in the presence of chemical substance / level in the absence of chemical substance (yeast gene YLR226W): 1.8
- The level of expressed mRNA in the presence of chemical substance/The level of expressed mRNA in the absence of chemical substance (yeast gene YLR324W): 1.2
- level of expressed mRNA in the presence of chemical substance / level in the absence of chemical substance (yeast gene YLR338W): 1.6
- The level of expressed mRNA in the presence of chemical substance/The level of expressed mRNA in the absence of chemical substance (yeast gene YLR350W): 1.9
- The level of expressed mRNA in the presence of chemical substance/The level of expressed mRNA in the absence of chemical substance (yeast gene YLR387C): 1.6
- level of expressed mRNA in the presence of chemical substance / level in the absence of chemical substance (yeast gene YLR392C): 0.9
- level of expressed mRNA in the presence of chemical substance / level in the absence of chemical substance (yeast gene YLR415C): 2.4
- level of expressed mRNA in the presence of chemical substance / level in the absence of chemical substance (yeast gene YLR427W): 1.0
- The level of expressed mRNA in the presence of chemical substance/The level of expressed mRNA in the absence of chemical substance (yeast gene YLR460C): 2.1
- level of expressed mRNA in the presence of chemical substance / level in the absence of chemical substance (yeast gene YML013W): 1.0
- level of expressed mRNA in the presence of chemical substance / level in the absence of chemical substance (yeast gene YML029W): 1.5
- level of expressed mRNA in the presence of chemical substance / level in the absence of chemical substance (yeast gene YML041C): 1.0
- level of expressed mRNA in the presence of chemical substance / level in the absence of chemical substance (yeast gene YML079W): 1.7
- The level of expressed mRNA in the presence of chemical substance/The level of expressed mRNA in the absence of chemical substance (yeast gene YML117W): 2.2
- The level of expressed mRNA in the presence of chemical substance/The level of expressed mRNA in the absence of chemical substance (yeast gene YMR009W): 1.9
- The level of expressed mRNA in the presence of chemical substance/The level of expressed mRNA in the absence of chemical substance (yeast gene YMR067C): 0.9
- level of expressed mRNA in the presence of chemical substance / level in the absence of chemical substance (yeast gene YMR068W): 0.7
- level of expressed mRNA in the presence of chemical substance / level in the absence of chemical substance (yeast gene YMR071C): 2.0
- The level of expressed mRNA in the presence of chemical substance/The level of expressed mRNA in the absence of chemical substance (yeast gene YMR090W): 9.5
- The level of expressed mRNA in the presence of chemical substance/The level of expressed mRNA in the absence of chemical substance (yeast gene YMR095C): 2.0
- The level of expressed mRNA in the presence of chemical substance/The level of expressed mRNA in the absence of chemical substance (yeast gene YMR097C): 1.0
- The level of expressed mRNA in the presence of chemical substance/The level of expressed mRNA in the absence of chemical substance (yeast gene YMR102C): 2.9
- The level of expressed mRNA in the presence of chemical substance/The level of expressed mRNA in the absence of chemical substance (yeast gene YMR107W): 3.9
- level of expressed mRNA in the presence of chemical substance / level in the absence of chemical substance (yeast gene YMR160W): 1.3
- The level of expressed mRNA in the presence of chemical substance/The level of expressed mRNA in the absence of chemical substance (yeast gene YMR180C): 0.9
- The level of expressed mRNA in the presence of chemical substance/The level of expressed mRNA in the absence of chemical substance (yeast gene YMR184W): 5.4
- The level of expressed mRNA in the presence of chemical substance/The level of expressed mRNA in the absence of chemical substance (yeast gene YMR191W): 2.4
- The level of expressed mRNA in the presence of chemical substance/The level of expressed mRNA in the absence of chemical substance (yeast gene YMR295C): 1.0
- The level of expressed mRNA in the presence of chemical substance/The level of expressed mRNA in the absence of chemical substance (yeast gene YMR316W): 2.9
- level of expressed mRNA in the presence of chemical substance / level in the absence of chemical substance (yeast gene YNL026W): 1.0
- The level of expressed mRNA in the presence of chemical substance/The level of expressed mRNA in the absence of chemical substance (yeast gene YNL044W): 0.9
